# Test results as given in patent publication US9085761B1, “Methods and compositions for amplification of nucleic acids” (Affymetrix, Inc., priority 2012, dated 2015).
# Assays:
# Taq DNA Polymerase = target: T1, Taq DNA Polymerase (Thermus aquaticus, UniProt P19821); assay: PCR amplification of a 455 bp human numb target with Taq DNA Polymerase in the presence of surfactant, product seen on agarose gel; type: biochemical; details: for Function: Table 1 summary: surfactants or blocked co-polymers that worked in the assay used and those that did not; for PCR product of the expected size: FIG. 1, diluted Taq with 0.00011% Tween-20 and NP-40 carry-over
# T1 construct: made in house
# Method: In order to test the efficacy of detergents on Taq DNA Polymerase, a stock of Taq DNA Polymerase at a base concentration of 111 units/ul was diluted to 5 units/ul in a storage buffer that lacked detergents. The standard Taq DNA Polymerase storage buffer has 0.5% Tween-20 and 0.5% NP-40. In this example 0.625 units of Taq were added per 25 ul reaction, so that represents a change in final detergent concentration of 0.0025% each detergent to 0.00011% of each. A 455 bp single-copy target from the human numb gene was PCR-amplified from 1 ng human genomic DNA in a 25 ul reaction with 0.625 units of the diluted Taq DNA polymerase. The cycling conditions were 95° C. for 2 minutes; 35 cycles of 95° C. for 10 seconds, 55° C. for 20 seconds, and 72° C. for 30 seconds; 72° C. for 5 minutes; and 10° C. until required. An aliquot of 10 ul was run on a 1.5% agarose/ethidium bromide gel.
# In FIG. 1, the results of the initial screen of several non-ionic and zwitterionic detergents are shown. In this example there is residual Tween-20 and NP-40 in the enzyme storage buffer. The concentrations of surfactants listed are the final concentration of that surfactant in the assay. All conditions in the example, including the “no detergent” condition, have 0.00011% Tween-20 and 0.00011% NP-40 resulting from carry-over from the enzyme storage buffer. […] As expected Tween-20 and NP-40 worked when present at 0.01% and 0.1%. […] A0-12-2 worked at 0.01% and PEO(10)SAP worked at 0.01, 0.1 and 1%. It is clear that in addition to the standard non-ionic detergents with PEOn, a zwitterionic or ylide with that polymer will also contribute to PCR product generation.
# Because a small amount of Tween-20 and NP-40 was carried over in the previous experiment, Taq DNA Polymerase was purified without the addition of detergents after the lysis step to provide a “detergent-free” Taq for use in the next example. The previous numb target and reaction conditions were used with 0.625 units of Taq per reaction.
# To further test the effectiveness of PEOn-derivatives, the denaturation temperature was changed from 95° C. to 98° C. in the cycling protocol. This increase in temperature adds additional stress to the function of Taq DNA Polymerase. A selection of PLURONIC® and TETRONIC® surfactants were tested (labels in the figures are abbreviated, for example, “T908” refers to TETRONIC® 908 and “P F87” refers to PLURONIC® F87). In addition, TETRONIC® 904 and 1107 were modified to amine-oxide, forms and then tested.
# [1] = Cloud point of surfactant; type: physicochemical; details: about 1% detergent concentration in 6×SSPE buffer
# Method: In some aspects surfactants are selected for use in the methods because they have a cloud point (temperature at which the solid begins to precipitate and give the fluid a cloudy appearance) greater than or equal to 80° C., greater than or equal to 90° C. and in particularly preferred aspects the cloud point is greater than about 100° C. (in each case when measured at about 1% aqueous). The cloud point is the temperature above which a surfactant solution separates into a detergent rich phase and a detergent poor phase (see, Rosen et al. Surfactants and interfacial Phenomena, ^3rd ed. 2004, Hoboken; John Wiley & Sons, Inc. and Neugebauer, J. M. Detergents: an overview, Methods Enzymol, 1990, 182, p. 239-53). The separation is visualized as turbidity within the solution. An increase in temperature favors micelle formation; the rapid growth of micelles along with intermicellar attraction likely results in the formation of large particles that can precipitate out of solution, thus causing turbidity. This phase separation is reversible upon cooling. […]
# The amine oxide detergents of the present invention have higher cloud points than their non-amine oxide counterparts. For example, PEO(10)stearlyamine has a cloud point of 60° C. compared to PEO(10)stearylamine N-oxide's cloud point of greater than 100° C., in both cases when measured at about 1% detergent concentration in 6×SSPE buffer. […]
# [2] = tested on: thermostable DNA polymerase; assay: Evaluation of protecting groups for reversible modification (hot-start inactivation) of thermostable polymerase; type: biochemical; details: reactivity tested in Tris pH 8 or Tricine pH 8.8
# Method: Three classes of protecting groups were evaluated: 2,3-substituted maleic anhybrides, alpha-activated compounds that can undergo beta-elimination and molecules that can undergo intramolecular cyclic displacement or assisted elimination. The experimental compounds had the general structure:
# Where Y could be N-hydroxysuccinimide (NHS), p-nitrophenol (pNP), or imidazole and X could be CONMe2, MeSO2, CN, NO2, CO2Me, (CH2)2SMe, N(CH3)CHO, or CH2C(O)CH3. The reactivity was tested in Tris pH 8 or Tricine pH 8.8. Buffer pH measurements are at room temperature (˜25° C.). […]
# T1 sequence (P19821 whole entry): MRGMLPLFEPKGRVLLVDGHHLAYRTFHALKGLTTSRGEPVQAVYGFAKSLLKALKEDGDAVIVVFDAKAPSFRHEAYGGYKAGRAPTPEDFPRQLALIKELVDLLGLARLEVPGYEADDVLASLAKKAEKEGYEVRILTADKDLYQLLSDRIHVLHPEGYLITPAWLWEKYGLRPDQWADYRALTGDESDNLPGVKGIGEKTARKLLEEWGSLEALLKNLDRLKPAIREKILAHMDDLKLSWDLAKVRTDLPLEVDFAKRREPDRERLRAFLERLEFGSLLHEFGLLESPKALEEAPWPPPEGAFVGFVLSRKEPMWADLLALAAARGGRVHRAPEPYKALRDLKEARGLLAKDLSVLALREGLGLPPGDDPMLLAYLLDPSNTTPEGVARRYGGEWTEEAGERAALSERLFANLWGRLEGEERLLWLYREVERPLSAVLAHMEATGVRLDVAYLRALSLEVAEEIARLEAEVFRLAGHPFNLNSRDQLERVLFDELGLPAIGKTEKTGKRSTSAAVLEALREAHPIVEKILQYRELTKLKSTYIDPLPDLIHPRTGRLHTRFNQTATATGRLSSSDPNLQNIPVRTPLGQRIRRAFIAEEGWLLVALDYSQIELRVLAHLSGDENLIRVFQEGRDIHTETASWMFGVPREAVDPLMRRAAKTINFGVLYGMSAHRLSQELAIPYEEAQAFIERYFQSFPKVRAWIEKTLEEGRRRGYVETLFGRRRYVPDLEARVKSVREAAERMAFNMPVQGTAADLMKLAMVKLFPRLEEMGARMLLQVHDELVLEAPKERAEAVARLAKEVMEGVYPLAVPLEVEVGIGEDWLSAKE
Molecule,Function (Taq DNA Polymerase),PCR product of the expected size (Taq DNA Polymerase; 0.01% surfactant final),PCR product of the expected size (Taq DNA Polymerase; 0.1% surfactant final),PCR product of the expected size (Taq DNA Polymerase; 1% surfactant final),further results
PEO(10) Stearyl (3-sulfo-propyl)-ammonium [PEO(10) SAPS],YES,–,–,–,–
Polyethoxylated/Polypropoxylated (isodecyloxypropyl)amine N-Oxide [AO-405],–,–,–,–,PCR product of the expected size (Taq DNA Polymerase; concentration not given): no visible product
"CCCCCCCCCCCC[N+]([O-])(CCO)CCO [AO-12-2, N,N-Bis(2-hydroxyethyl)laurylamine N-Oxide]",–,resulted in a product,not,not,"PCR product of the expected size (Taq DNA Polymerase; 0.01% surfactant final, listed as A0-12-2): worked"
Polyethoxylated (10) Stearylamine N-Oxide [PE0 (10) SAO],YES,worked,worked,worked,"cloud point [1]: greater than 100 °C; PCR product (Taq DNA Polymerase; detergent-free Taq DNA Polymerase, FIG. 2, 3, 4): PCR product was observed"
NP 40 [reference compound],YES,worked,worked,–,–
"CS(=O)(=O)CCOC(=O)Oc1ccc([N+](=O)[O-])cc1 [MSEC, 2-(Methylsulfonyl)ethyl 4-nitrophenyl carbonate]",–,–,–,–,effectiveness as reversible modifier of polymerase [2]: most effective
